Data from PubChem BioAssay AID1996.
≈ marks a conversion by molar mass, not a printed value.

Conditions: buffer; pH 7.4; 200.0 µM

Row | solubility kinetic [µg/mL] | SMILES
1 | > 50.3 | Cc1cc(OCCCCN2C(=O)NC(C)(C)C2=O)ccc1[N+](=O)[O-]
2 | > 51.7 | CN(C)S(=O)(=O)N1CCN(CC(=O)Nc2ccc(F)cc2)CC1
3 | > 37.7 | N/C(CSc1ncccc1C(F)(F)F)=N\O
4 | > 58.6 | CN(C(=O)c1cc2ccccc2o1)c1c(N)n(Cc2ccccc2)c(=O)[nH]c1=O
5 | 4.3 (≈ 13.6 µM) | COc1ccccc1CNC(=O)COC(=O)c1cc(C)oc1C
6 | 42.3 (≈ 140 µM) | COc1ccc2nc(C)cc(NCCN3CCOCC3)c2c1
7 | > 52 | CC(=O)c1ccc(N2CCN(C(=O)c3cccs3)C(C)C2)c(F)c1 (stereo not given)
8 | > 49 | CC(=O)Nc1ccc(S(=O)(=O)N2CCCC(C(=O)O)C2)cc1 (stereo not given)
9 | 3.2 (≈ 8.73 µM) | O=C1CC2(CCN(C(=O)c3ccc([N+](=O)[O-])cc3)CC2)Oc2ccccc21
10 | 5.1 (≈ 17.9 µM) | CCc1ccc(NC(=O)c2[nH]c(C)c(C(C)=O)c2C)cc1
11 | 6.3 (≈ 14.3 µM) | O=C1CN(C(=O)CN2C(=O)NC(c3ccccc3)(c3ccccc3)C2=O)c2ccccc2N1
12 | 43.3 | COc1cccc(C(=O)OCCNC(=O)c2cccnc2)c1.Cl
13 | 1.7 (≈ 4.9 µM) | COC(=O)C1=C(N)Oc2cc(C)[nH]c(=O)c2C1c1ccc(Cl)cc1 (stereo not given)
14 | > 50 | O=C(CN1C(=O)c2ccccc2C1=O)N1CCN=C1c1ccccc1
15 | 15.1 (≈ 44.5 µM) | COc1cccc(-c2ccc3c(N)c(C(=O)NC4CC4)sc3n2)c1
16 | 2.5 (≈ 8.7 µM) | Cc1ccc(NC(=O)CCOc2ccccc2C)cc1F
17 | 29.8 (≈ 101 µM) | COc1ccccc1C1CCN(Cc2ccc(C)cc2)CC1
18 | > 36.6 | CC(C)CNC1CS(=O)(=O)CC1O.Cl (stereo not given)
19 | > 50.3 | CC1CCCCC1NC(=O)NC(=O)COC(=O)c1nccnc1N (stereo not given)
20 | > 36.3 | CC1(C)CC(=O)N(c2ccc(C#N)cc2)C(=O)C1

Row | solubility kinetic [µg/mL] | SMILES
21 | > 45.5 | CCOC(=O)c1c(NCCN(C)C)c2ccccc2[nH]c1=O
22 | 29.7 (≈ 128 µM) | COc1c(C=O)cc2c3c1CCCN3CCC2
23 | 44.1 (≈ 129 µM) | CCOC(=O)C1CCN(S(=O)(=O)c2ccccc2[N+](=O)[O-])CC1
24 | 48.4 (≈ 139 µM) | COc1ccc(S(=O)(=O)N2CCc3ccccc3C2)cc1C(=O)O
25 | 3.1 (≈ 7.22 µM) | COc1ccccc1CNC(=O)CN1C(=O)NC(c2ccccc2)(c2ccccc2)C1=O
26 | 26.2 (≈ 78.8 µM) | O=C(CN1C(=O)c2ccc([N+](=O)[O-])cc2C1=O)Nc1nccs1
27 | > 51.9 | CN(C(=O)COC(=O)c1cccc(Cl)c1)C1CCS(=O)(=O)C1 (stereo not given)
28 | > 53 | CC(OC(=O)Cc1c[nH]c2ccccc12)C(=O)NC1(C#N)CCCCC1 (stereo not given)
29 | > 36.9 | O=C1N=c2ccccc2=C1c1sc(=O)[nH]c1O
30 | 22.8 (≈ 73.5 µM) | COc1ccc(NC(=S)Nc2ccc3nccnc3c2)cc1
31 | < 0.3 | COC(=O)c1ccc(CO/N=C/c2cccc([N+](=O)[O-])c2)cc1
32 | > 43.6 | Cc1ccccc1CN(C)C(=O)c1ccc2ccccc2n1
33 | 36 (≈ 149 µM) | CCCNC(=O)C(=O)NCC1CCCN1CC (stereo not given)
34 | 17.3 (≈ 71.1 µM) | Cc1cc(C)c2c(=O)cc(C(F)(F)F)oc2n1
35 | 32.6 (≈ 91 µM) | Cn1c(=O)c2c(O)c(C=Nc3ccc(F)cc3)c(=O)n(C)c2n(C)c1=O
36 | 25.8 (≈ 111 µM) | CSc1ccccc1Nc1ncnc(N)n1
37 | 32.6 (≈ 77.2 µM) | O=C(COC(=O)COc1cccc(Br)c1)NCc1ccc2c(c1)OCO2
38 | > 26.1 | N#Cc1cc2c([nH]c1=O)CCCC2
39 | > 53.3 | Cc1ccc([N+](=O)[O-])cc1N(CC(=O)N1CCCCC1)S(C)(=O)=O
40 | > 45.8 | Cc1[nH]c2ccccc2c1C(c1ccncc1)N1CCCCC1 (stereo not given)

Row | solubility kinetic [µg/mL] | SMILES
41 | > 48.2 | CCc1nc2ccccc2n1CC(=O)NC1CCS(=O)(=O)C1 (stereo not given)
42 | 30.6 (≈ 100 µM) | C=CCNC(=O)C1CC1(c1ccc(C)cc1)c1ccc(C)cc1 (stereo not given)
43 | 6.1 (≈ 19.7 µM) | N#C/C(=C\c1ccc(F)c(Br)c1)C(=O)NC1CC1
44 | > 64.1 | O=C(COc1ccc(Br)cc1F)NCC1(N2CCCCC2)CCCCC1
45 | 25.8 (≈ 123 µM) | NC(=S)Nc1nc2ccccc2s1
46 | 1.8 (≈ 6.08 µM) | CNC(=O)c1cc(C(=O)c2ccc(C(F)(F)F)cc2)c[nH]1
47 | < 0.7 | O=C(Nc1ccc2c(c1)CCC2)c1ccc(Br)s1
48 | < 0.3 | CCCOc1ccc(Oc2nc(-c3ccncc3)nc3ccccc23)cc1
49 | 34.8 (≈ 137 µM) | Cc1ccc(N(C)C2=NC(=O)CS2)cc1Cl
50 | 42.6 (≈ 129 µM) | Cc1ccccc1NC(=O)CCCNC(=O)c1ccc(Cl)cc1
51 | 30.6 (≈ 98.3 µM) | COc1cccc(C(=O)Nc2ccccc2OC(F)(F)F)c1
52 | > 49.7 | O=C(O)c1ccc(NC(=O)C(c2ccccc2)c2ccccc2)cc1
53 | 46.1 (≈ 149 µM) | COc1ccc(OC)c(S(=O)(=O)n2ccnc2C(C)C)c1
54 | 7.6 (≈ 25.4 µM) | O=[N+]([O-])c1cccc(NC(=S)N2CCc3ccccc32)c1
55 | > 38.9 | O=C(CCc1ccccc1)NCCc1cccs1
56 | 0.6 (≈ 1.98 µM) | COc1ccc(-c2cc(-c3cccnc3)c(C#N)c(N)n2)cc1
57 | > 49.4 | CC(C)c1ccc(NC2CCCN(C(=O)c3cscn3)C2)cc1 (stereo not given)
58 | 32.6 (≈ 74.9 µM) | COc1ccc(NC(=O)COC(=O)c2cccn2C)cc1S(=O)(=O)N1CCCCC1
59 | > 42.1 | CCN(CC)C1CC(=O)N(c2cccc(Cl)c2)C1=O (stereo not given)
60 | 0.8 (≈ 2.65 µM) | O=C(NC(=S)NCCc1ccccc1)c1ccccc1F
